According to paper PMC7413254 (Nature Communications, 2020):
Where two headings read alike, the source gives them in different places.

Tests used:
[1] = molecular target: T1, PfCRT^Ecu1110 (Plasmodium falciparum, UniProt Q9N623, A220S/I356L/K76T/N326D); assay: [3H]CQ uptake into Xenopus oocytes, cis-inhibition by unlabelled solute; assay type: cell-based
In short: (§1)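 ND96, pH 5.5, 1.5 h, 27.5 °C; uptake direction acidic outside → oocyte cytosol, mimicking efflux from digestive vacuole. Ice-cold wash stop, 10% SDS lysis, scintillation counting. Ten oocytes/treatment, ≥4 independent experiments.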

[2] = molecular target: T2, PfCRT^Dd2 (Plasmodium falciparum, UniProt Q9N623, A220S/I356T/K76T/M74I/N326S/N75E/Q271E/R371I); assay: as above; assay type: cell-based
T2 sequence (Q9N623 whole entry A220S/I356T/K76T/M74I/N326S/N75E/Q271E/R371I): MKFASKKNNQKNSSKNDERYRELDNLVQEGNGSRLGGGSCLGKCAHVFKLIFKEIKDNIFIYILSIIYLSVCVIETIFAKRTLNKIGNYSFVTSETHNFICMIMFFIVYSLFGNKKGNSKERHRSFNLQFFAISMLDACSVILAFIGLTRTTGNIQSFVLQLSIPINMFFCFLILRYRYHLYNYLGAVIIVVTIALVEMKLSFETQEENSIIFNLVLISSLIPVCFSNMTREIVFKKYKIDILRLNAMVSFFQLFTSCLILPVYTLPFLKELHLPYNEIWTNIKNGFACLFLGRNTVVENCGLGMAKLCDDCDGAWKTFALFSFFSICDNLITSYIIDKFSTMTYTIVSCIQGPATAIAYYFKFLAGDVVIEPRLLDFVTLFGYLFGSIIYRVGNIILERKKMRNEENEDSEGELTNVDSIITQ
In short: as §1

[3] = tested on: PfCRT; assay: Influx of VF-6 via PfCRT into the oocyte, solutes tested as potential co-substrates; assay type: cell-based, Plasmodium falciparum; set-up: key: X: Compounds that have been tested as potential co-substrates but are not required for influx of VF-6 via PfCRT into the oocyte; details: X marks the solute
[4] = tested on: PfCRT; assay: Potential co-substrates tested for influx of VF-6 via PfCRT into the oocyte; assay type: cell-based, Plasmodium falciparum; set-up: key: X: Compounds that have been tested as potential co-substrates but are not required for influx of VF-6 via PfCRT into the oocyte
[5] = molecular target: T3, PfCRT^3D7 (Plasmodium falciparum, UniProt Q8IBZ9); assay: cell-based; assay type: cell-based; details: total [3H]CQ transport; for inhibition at 500 µM: [test solute] = 0.5 mM; for inhibition at 1000 µM: [test solute] = 1 mM; for inhibition at 2000 µM: [test solute] = 2 mM
T3 sequence (Q8IBZ9 59-398): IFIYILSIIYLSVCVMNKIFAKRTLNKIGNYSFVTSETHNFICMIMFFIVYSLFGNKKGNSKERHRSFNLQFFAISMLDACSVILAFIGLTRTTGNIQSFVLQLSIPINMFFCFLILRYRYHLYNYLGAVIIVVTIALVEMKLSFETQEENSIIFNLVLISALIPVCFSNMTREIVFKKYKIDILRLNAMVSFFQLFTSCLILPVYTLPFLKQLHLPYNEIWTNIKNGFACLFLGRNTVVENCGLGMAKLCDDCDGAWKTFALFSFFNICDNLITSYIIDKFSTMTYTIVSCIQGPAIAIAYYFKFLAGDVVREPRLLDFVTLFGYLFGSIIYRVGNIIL
In short: as §1

[6] = tested on: non-expressing oocytes; assay type: cell-based, Xenopus laevis; details: total [3H]CQ transport; for Uptake of [3H]CQ (% non-expressing oocyte control), trans-stimulation: non-expressing oocytes, normalised to the oocyte type control; for Uptake of [3H]CQ (% PfCRTDd2 control), trans-stimulation, non-expressing oocytes: mean ± SEM, SEM
In short: (§2)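 Oocytes (ten per treatment, ≥4 independent frogs/days) were preloaded by injecting VF-6 in 25 nL ND96 at pH 5.0, 5.5, 6.0 or 7.0, or Na^+-free choline buffer, then uptake run 1.5 h, 27.5 °C, ND96 pH 5.5 by default. Internal concentrations assumed ~400 nL oocyte volume.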

[7] = molecular target: T4, PfNT1 (Plasmodium falciparum, UniProt Q8IDM6); assay: cell-based; assay type: cell-based; details: for activity at 5000 µM: total [3H]CQ transport
T4 construct: expressed in transfected cells; host or cells: Xenopus laevis oocytes (stage V-VI), cRNA-injected
T4 sequence (Q8IDM6 whole entry): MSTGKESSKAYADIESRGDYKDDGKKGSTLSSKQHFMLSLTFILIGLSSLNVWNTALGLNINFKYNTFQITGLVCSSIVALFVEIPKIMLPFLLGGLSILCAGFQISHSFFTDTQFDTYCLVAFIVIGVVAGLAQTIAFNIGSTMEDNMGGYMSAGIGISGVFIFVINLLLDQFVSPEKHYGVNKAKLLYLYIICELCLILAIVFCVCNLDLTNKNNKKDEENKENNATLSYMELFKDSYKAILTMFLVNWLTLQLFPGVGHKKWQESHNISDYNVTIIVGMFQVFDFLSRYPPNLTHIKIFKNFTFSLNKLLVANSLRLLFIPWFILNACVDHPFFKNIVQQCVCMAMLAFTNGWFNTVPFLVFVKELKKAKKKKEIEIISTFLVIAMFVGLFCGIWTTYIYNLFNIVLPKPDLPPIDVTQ
In short: as §2

[8] = molecular target: T1, PfCRT^Ecu1110; assay: cell-based; assay type: cell-based; details: […]
In short: as §2

[9] = molecular target: T2, PfCRT^Dd2; assay: cell-based; assay type: cell-based; details: […]; for activity at 45000 µM: [test solute]i = 45 mM (30 mM for some solutes due to solubility)
In short: as §2

[10] = molecular target: T3, PfCRT^3D7; assay: cell-based; assay type: cell-based
In short: as §2

[11] = tested on: non-expressing oocytes; assay: cells; assay type: cell-based, Xenopus laevis; details: Xenopus laevis, total [3H]CQ transport; for inhibition at 500 µM: [test solute] = 0.5 mM; for inhibition at 1000 µM: [test solute] = 1 mM; for inhibition at 2000 µM: [test solute] = 2 mM
In short: as §1

[12] = read-out: PfCRT-mediated [3H]CQ transport, cis-inhibition (% PfCRTEcu1110 control)
[13] = read-out: Uptake of [3H]CQ (% PfCRTDd2 control), cis-inhibition, PfCRTEcu1110, SEM
[14] = read-out: Uptake of [3H]CQ (% PfCRTEcu1110 control), cis-inhibition
[15] = read-out: [3H]CQ transport (% PfCRTEcu1110 control), cis-inhibition, PfCRTEcu1110, SEM
[16] = read-out: PfCRT-mediated [3H]CQ transport, cis-inhibition (% PfCRTDd2 control)
[17] = read-out: Uptake of [3H]CQ (% PfCRTDd2 control), cis-inhibition
[18] = read-out: Uptake of [3H]CQ (% PfCRTDd2 control), cis-inhibition, PfCRTDd2, SEM
[19] = read-out: [3H]CQ transport (% PfCRTDd2 control), cis-inhibition, PfCRTDd2, SEM
[20] = PfCRT3D7 oocytes, normalised to the oocyte type control, read-out: Uptake of [3H]CQ (% PfCRT3D7 control), cis-inhibition
[21] = mean ± SEM, SEM, read-out: Uptake of [3H]CQ (% PfCRTDd2 control), cis-inhibition, PfCRT3D7
[22] = Oocyte, mean ± SEM, SEM, read-out: Uptake of [3H]CQ (% PfCRTDd2 control), cis-inhibition, non-expressing oocytes
[23] = non-expressing oocytes, normalised to the oocyte type control, read-out: Uptake of [3H]CQ (% non-expressing oocyte control), cis-inhibition

T1 sequence (Q9N623 whole entry A220S/I356L/K76T/N326D): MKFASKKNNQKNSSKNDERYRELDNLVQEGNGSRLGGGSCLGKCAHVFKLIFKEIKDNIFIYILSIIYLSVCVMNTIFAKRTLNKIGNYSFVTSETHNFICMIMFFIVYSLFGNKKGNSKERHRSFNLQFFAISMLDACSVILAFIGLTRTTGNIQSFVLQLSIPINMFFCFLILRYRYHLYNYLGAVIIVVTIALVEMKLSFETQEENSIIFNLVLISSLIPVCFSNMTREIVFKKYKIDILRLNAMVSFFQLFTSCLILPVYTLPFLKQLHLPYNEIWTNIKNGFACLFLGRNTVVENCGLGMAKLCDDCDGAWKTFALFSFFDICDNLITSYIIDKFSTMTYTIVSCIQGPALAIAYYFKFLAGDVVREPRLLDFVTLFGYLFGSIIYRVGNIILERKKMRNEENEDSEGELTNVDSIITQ

N[C@@H](Cc1c[nH]c2ccccc12)C(=O)O [L-tryptophan]
inhibition at 500 µM [1, 12]: 96 ± 3.7% | inhibition at 1000 µM [1, 12]: 95 ± 4.6% | inhibition at 500 µM [1, 13]: 32 ± 1.6% | inhibition at 1000 µM [1, 13]: 32 ± 0.6% | inhibition at 2000 µM [1, 13]: 33 ± 1.4% | inhibition at 500 µM [1, 14]: 98 ± 2.5% | inhibition at 1000 µM [1, 14]: 97 ± 2.7% | inhibition at 2000 µM [1, 14]: 101 ± 3.1% | inhibition at 500 µM [1, 15]: 29 ± 1.3% | inhibition at 1000 µM [1, 15]: 29 ± 0.3% | inhibition at 2000 µM [1, 15]: 30 ± 1.4% | inhibition at 500 µM [2, 16]: 94 ± 4.6% | inhibition at 1000 µM [2, 16]: 95 ± 1.9% | inhibition at 2000 µM [2, 16]: 95 ± 1.9% | inhibition at 1000 µM [2, 17]: 97 ± 2.6% | inhibition at 2000 µM [2, 17]: 97 ± 2.5% | inhibition at 500 µM [2, 18]: 96 ± 2.1% | inhibition at 1000 µM [2, 18]: 97 ± 2.6% | inhibition at 2000 µM [2, 18]: 97 ± 2.5% | inhibition at 1000 µM [2, 19]: 95 ± 1.9% | inhibition at 2000 µM [2, 19]: 95 ± 1.9% | Compounds that have been tested as potential co-substrates but are not required for influx of VF-6 via PfCRT into the oocyte [3]: X | Tested as potential co-substrate but not required for influx of VF-6 via PfCRT into the oocyte [4]: X | inhibition at 500 µM [5, 20]: 100 ± 3.2% | inhibition at 1000 µM [5, 20]: 99 ± 4.6% | inhibition at 2000 µM [5, 20]: 100 ± 3.6% | inhibition at 500 µM [5, 21]: 2.7 ± 0.03% | inhibition at 1000 µM [5, 21]: 2.5 ± 0.04% | inhibition at 2000 µM [5, 21]: 2.7 ± 0.04% | Uptake of [3H]CQ (% non-expressing oocyte control), trans-stimulation ([6]; [test solute]i = 5 mM): 98 ± 2.5 % non-expressing oocyte control | Uptake of [3H]CQ (% non-expressing oocyte control), trans-stimulation ([6]; [test solute]i = 45 mM (30 mM for some solutes due to solubility)): 99 ± 2.1 % non-expressing oocyte control | Uptake of [3H]CQ (% PfCRTDd2 control), trans-stimulation, non-expressing oocytes ([6]; [test solute]i = 5 mM (intracellular)): 3.0 ± 0.04 % PfCRTDd2 control | Uptake of [3H]CQ (% PfCRTDd2 control), trans-stimulation, non-expressing oocytes ([6]; [test solute]i = 45 mM (intracellular; 30 mM for some solutes due to solubility)): 3.2 ± 0.01 % PfCRTDd2 control | activity at 5000 µM ([7]; PfNT1 oocytes, [test solute]i = 5 mM, normalised to the oocyte type control, read-out: Uptake of [3H]CQ (% PfNT1 control), trans-stimulation): 101 ± 3.9% | activity at 45000 µM ([7]; SEM, read-out: Uptake of [3H]CQ (% PfCRTDd2 control), trans-stimulation, PfNT1): 2.1 ± 0.03% | activity at 45000 µM ([7]; read-out: Uptake of [3H]CQ (% PfNT1 control), trans-stimulation): 98 ± 3.2% | activity at 5000 µM ([7]; [test solute]i = 5 mM (intracellular), mean ± SEM, SEM, read-out: Uptake of [3H]CQ (% PfCRTDd2 control), trans-stimulation, PfNT1): 2.7 ± 0.05% | activity at 5000 µM ([8]; pH 5.5, read-out: PfCRT-mediated [3H]CQ transport, trans-stimulation (% PfCRTEcu1110 control), [test solute]i = 5 mM (intracellular), PfCRTEcu1110 oocytes, normalised to oocyte type control): 97 ± 2.2% | activity at 5000 µM ([8]; pH 5.5, read-out: Uptake of [3H]CQ (% PfCRTEcu1110 control), trans-stimulation, PfCRTEcu1110 oocytes, [test solute]i = 5 mM, total [3H]CQ transport, normalised to the oocyte type control): 99 ± 3.1% | activity at 45000 µM ([8]; pH 5.5, read-out: Uptake of [3H]CQ (% PfCRTEcu1110 control), trans-stimulation, PfCRTEcu1110 oocytes, [test solute]i = 45 mM (30 mM for some solutes due to solubility), total [3H]CQ transport, normalised to the oocyte type control): 99 ± 3.5% | activity at 5000 µM ([8]; read-out: Uptake of [3H]CQ (% PfCRTDd2 control), trans-stimulation, PfCRTEcu1110, total [3H]CQ transport, [test solute]i = 5 mM (intracellular), mean ± SEM, SEM): 35 ± 1.9% | activity at 45000 µM ([8]; read-out: Uptake of [3H]CQ (% PfCRTDd2 control), trans-stimulation, PfCRTEcu1110, total [3H]CQ transport, [test solute]i = 45 mM (intracellular; 30 mM for some solutes due to solubility), mean ± SEM, SEM): 35 ± 2.1% | activity at 5000 µM ([9]; pH 5.5, read-out: PfCRT-mediated [3H]CQ transport, trans-stimulation (% PfCRTDd2 control), [test solute]i = 5 mM (intracellular), PfCRTDd2 oocytes, normalised to oocyte type control): 98 ± 1.6% | activity at 5000 µM ([9]; pH 5.5, read-out: Uptake of [3H]CQ (% PfCRTDd2 control), trans-stimulation, PfCRTDd2, total [3H]CQ transport, [test solute]i = 5 mM (intracellular), mean ± SEM, SEM): 100 ± 2.2% | activity at 5000 µM ([9]; pH 5.5, read-out: Uptake of [3H]CQ (% PfCRTDd2 control), trans-stimulation, PfCRTDd2 oocytes, [test solute]i = 5 mM, total [3H]CQ transport, normalised to the oocyte type control): 100 ± 2.2% | activity at 45000 µM ([9]; pH 5.5, read-out: Uptake of [3H]CQ (% PfCRTDd2 control), trans-stimulation, PfCRTDd2 oocytes, total [3H]CQ transport, normalised to the oocyte type control): 101 ± 2.4% | activity at 5000 µM ([9]; pH 5.5, read-out: [3H]CQ transport (% PfCRTDd2 control), trans-stimulation, PfCRTDd2, trans-stimulation, [test solute]i = 5 mM (injected), PfCRT-mediated component (background subtracted), mean ± SEM, SEM): 98 ± 1.6% | activity at 45000 µM ([9]; pH 5.5, read-out: [3H]CQ transport (% PfCRTDd2 control), trans-stimulation, PfCRTDd2, trans-stimulation, PfCRT-mediated component (background subtracted), mean ± SEM, SEM): 99 ± 1.9% | activity at 5000 µM ([10]; PfCRT3D7 oocytes, [test solute]i = 5 mM, total [3H]CQ transport, normalised to the oocyte type control, read-out: Uptake of [3H]CQ (% PfCRT3D7 control), trans-stimulation): 100 ± 3.5% | [3H]CQ transport (% PfCRT3D7 control), trans-stimulation, PfCRT3D7 ([10]; SEM): 0.3 ± 0.02 % PfCRT3D7 control | activity at 5000 µM ([10]; [test solute]i = 5 mM (intracellular), PfCRT3D7 oocytes, normalised to oocyte type control, read-out: PfCRT-mediated [3H]CQ transport, trans-stimulation (% PfCRT3D7 control)): 98 ± 4.7% | activity at 45000 µM ([10]; SEM, read-out: Uptake of [3H]CQ (% PfCRTDd2 control), trans-stimulation, PfCRT3D7): 3.4 ± 0.06% | activity at 45000 µM ([10]; read-out: PfCRT-mediated [3H]CQ transport, trans-stimulation (% PfCRT3D7 control)): 99 ± 3.4% | activity at 45000 µM ([10]; read-out: Uptake of [3H]CQ (% PfCRT3D7 control), trans-stimulation): 101 ± 2.5% | activity at 5000 µM ([10]; total [3H]CQ transport, [test solute]i = 5 mM (intracellular), mean ± SEM, SEM, read-out: Uptake of [3H]CQ (% PfCRTDd2 control), trans-stimulation, PfCRT3D7): 3.3 ± 0.06% | inhibition at 500 µM [11, 22]: 2.1 ± 0.07% | inhibition at 1000 µM [11, 22]: 3.4 ± 0.1% | inhibition at 2000 µM [11, 22]: 3.6 ± 0.09% | inhibition at 500 µM [11, 23]: 97 ± 3.2% | inhibition at 1000 µM [11, 23]: 100 ± 3.6% | inhibition at 2000 µM [11, 23]: 100 ± 6.3%
